Source: PubChem BioAssay AID489024 (Sanford-Burnham Center for Chemical Genomics, 2010)
The source made the active and inactive calls.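 The calls were made as follows: active = compounds whose mean EC50, the dose giving half the maximal reporter activation, is at or below a set limit; inactive = the rest.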

Each compound was assayed against CHO-CHOP luciferase reporter, UPR activation, luminescence (assay: CHOP reporter induction, apoptotic UPR branch – CHO-CHOP cells, luciferase luminescence, confirmation (AID 489024);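 also: compounds added alone to reporter cells with no tunicamycin stress co-treatment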).

`CCc1cccc(CC)c1NC(=O)/C(C#N)=C/c1ccccc1C(F)(F)F` was tested. Which EC50 did it give?
The EC50 was > 80 µM (inactive).

How did the EC50 turn out when `Oc1c(C(Nc2ccccn2)c2ccccn2)ccc2cccnc12` (stereo not given) was run?
Its EC50 is 12.3 µM.

How did the EC50 turn out when `Oc1ccc(/C=N/Nc2nc(N3CCCC3)nc(N3CCCC3)n2)cc1O` was run?
The EC50 was 2.93 µM.

How did the EC50 turn out when `CCOC(=O)c1ccc(N2C(=O)C=CC2=O)cc1` was run?
The EC50 was > 80 µM (inactive).

For `Cc1ccc(C(=O)C(C(=O)/C=C/c2ccccc2)=C2SCCCS2)cc1`, which EC50 is on record?
Its EC50 is 14.6 µM.

For `O=S(=O)(CCSc1nc2ccccc2s1)c1nc2ccccc2s1`, which EC50 is on record?
The EC50 was 11.6 µM.

How did the EC50 turn out when `CC(C)(C)C(=O)NC(=S)NNC(=O)c1ccc(-c2ccccc2)cc1` was run?
The EC50 was 12.9 µM.

`O=C(/C=C1\NC2(CCCC2)Cc2ccccc21)C(=O)N/N=C/c1ccc(O)c(O)c1` was tested. Which EC50 did it give?
Its EC50 is 9.4 µM.

`O=C(c1ccc(Cl)cc1)C(CN1CCCC1)c1ccccc1` (stereo not given) was tested. Which EC50 did it give?
Its EC50 is 14.3 µM.

With `COc1ccc2c(c1)CCc1c(C(=O)Nc3cc(C)n(Cc4ccc(Cl)cc4)n3)noc1-2` as the compound, how does the EC50 read?
The EC50 was 14 µM.

`CN(C)C(=O)CSc1cccc2cccnc12` was tested. Which EC50 did it give?
The EC50 was 8.15 µM.

With `Cc1c(C#N)c(NC(=O)CCl)n(Cc2cccs2)c1C` as the compound, how does the EC50 read?
The EC50 was > 80 µM (inactive).

`Oc1ccc(/C=N/N(c2ccccc2)c2ccccc2)cc1O` was tested. Which EC50 did it give?
Its EC50 is “inactive”.

For `O=C(Nc1nc2ccc(F)cc2s1)c1ccccn1`, which EC50 is on record?
Its EC50 is 7.16 µM.

`O=C(/C=C/Sc1ccccc1)c1ccc(Cl)cc1` was tested. Which EC50 did it give?
Its EC50 is 10.6 µM.

Which EC50 does the source give for `COc1ccc(/C=C\c2nc(=O)c3ccccc3o2)cc1` here?
The EC50 was 8.46 µM.

How did the EC50 turn out when `O=C(NCCc1ccc(F)cc1)c1coc(=O)c(Br)c1` was run?
Its EC50 is 9.53 µM.

`COc1ccc(-c2cc(-c3ccccc3)c(C#N)c(S(C)(=O)=O)n2)cc1` was tested. Which EC50 did it give?
The EC50 was 5.18 µM.

With `COc1cc(C(Nc2ccccn2)c2ccc3ccc(C)nc3c2O)cc(OC)c1O` (stereo not given) as the compound, how does the EC50 read?
The EC50 was 6.83 µM.

`O=C(N/N=C/c1ccccn1)c1cc(-c2ccc(Cl)cc2)nc2ccccc12` was tested. Which EC50 did it give?
Its EC50 is 2.51 µM.

With `O=c1[nH]c(=S)n(C2CC2)c(O)c1C=Nc1cccc(C(F)(F)F)c1` as the compound, how does the EC50 read?
Its EC50 is > 80 µM (inactive).

For `COc1ccc(C(=O)C(CN2CCCC2)c2ccccc2)cc1` (stereo not given), which EC50 is on record?
Its EC50 is 13.9 µM.

For `Cc1ccc(-c2nc(NC(=O)c3nn(C)cc3[N+](=O)[O-])sc2C)cc1C`, which EC50 is on record?
The EC50 was 6.33 µM.

`O=C(Nc1ccc2oc(-c3ccncc3)nc2c1)c1ccc([N+](=O)[O-])o1` was tested. Which EC50 did it give?
The EC50 was 0.82 µM.

How did the EC50 turn out when `COc1cc(NC(=O)c2cncc(-c3ccc(C#N)cc3)c2)cc(C(=O)Nc2cccc(C(F)(F)F)c2)c1` was run?
The EC50 was “inactive”.

`CCOC(=O)c1c(C)oc2c1c(C(c1cccnc1)N1CCOCC1)c(O)c1ccccc12` (stereo not given) was tested. Which EC50 did it give?
The EC50 was 16.8 µM.

For `O=C(Nc1ccc(NC(=O)c2sc3ccccc3c2Cl)cc1Cl)c1ccco1`, which EC50 is on record?
Its EC50 is “inactive”.

`CCN1CSC(=S)N(Cc2ccccc2)C1` was tested. Which EC50 did it give?
The EC50 was 8.48 µM.

`Cc1ccc(NC(=O)c2nc(S(=O)(=O)Cc3ccccc3C)ncc2Cl)cc1C` was tested. Which EC50 did it give?
The EC50 was 8.51 µM.

`COc1ccc(/C=C/c2nc3cc(-c4ccccc4)ccc3o2)cc1O` was tested. Which EC50 did it give?
The EC50 was 12.7 µM.

Which EC50 does the source give for `O=C1NC(=O)N(c2ccccc2)C(=O)/C1=C\C=C\c1ccccc1` here?
The EC50 was 4.5 µM.

How did the EC50 turn out when `CN1C(=O)/C(=C/c2cccn2-c2ccc3ccccc3c2)C(=O)NC1=S` was run?
Its EC50 is 11.7 µM.

How did the EC50 turn out when `Oc1c(Cl)cc(CN2CCCCC2)c2cccnc12` was run?
Its EC50 is 15.2 µM.

`CCOc1cccc(C(=O)Nc2cccc(-c3nnc(-c4ccc(C)cc4)o3)c2)c1` was tested. Which EC50 did it give?
The EC50 was > 80 µM (inactive).

Which EC50 does the source give for `Cc1ccc(Sc2nc(-c3ccccc3)nnc2C(F)(F)F)cc1` here?
The EC50 was > 80 µM (inactive).

Which EC50 does the source give for `O=C(C[C@H]1C[C@H](C(=O)N2CCCCC2)[C@@]2(CCc3ccccc3)c3[nH]c4ccc(Cl)cc4c3CCN2C1=O)NCCC1=CCCCC1` here?
Its EC50 is “inactive”.

With `CC(=O)/C(=C/c1ccccc1)C(=O)Nc1ccccc1C` as the compound, how does the EC50 read?
Its EC50 is “inactive”.

For `Cc1cccc(CSc2cccc3cccnc23)c1`, which EC50 is on record?
Its EC50 is 7.72 µM.

Which EC50 does the source give for `CS(=O)(=O)c1nc(-c2ccccc2)cc(-c2ccccc2)c1C#N` here?
The EC50 was 15.3 µM.

`Cc1ccc2c(C(=O)CCl)c(C)[nH]c2c1` was tested. Which EC50 did it give?
The EC50 was 11.2 µM.

For `COc1ccc(C(=O)NCC(=O)N/N=C/c2ccc([N+](=O)[O-])o2)cc1OC`, which EC50 is on record?
Its EC50 is > 80 µM (inactive).

With `CN(C(=O)CSc1cc(C(=O)c2nccn2C)c2ccccc2n1)c1ccccc1` as the compound, how does the EC50 read?
Its EC50 is 7.96 µM.

With `COc1cccc(N=Cc2c(O)c3ccccc3oc2=O)c1` as the compound, how does the EC50 read?
The EC50 was 8.69 µM.

With `O=C(Nc1cccc(S(=O)(=O)N2CCCCC2)c1)c1ccc([N+](=O)[O-])o1` as the compound, how does the EC50 read?
Its EC50 is 5.08 µM.

With `Oc1[nH]c2ccccc2c1N=NC(=S)N1CCOCC1` as the compound, how does the EC50 read?
The EC50 was 7.74 µM.

`CCOC(=O)C(=Cc1ccc(-n2cncn2)cc1)C(=O)OCC` was tested. Which EC50 did it give?
Its EC50 is 11.4 µM.

`O=C1Nc2ccccc2/C1=C\C(=O)c1ccccc1` was tested. Which EC50 did it give?
The EC50 was 14.2 µM.

Which EC50 does the source give for `O=C(N/N=C(\c1ccccc1)c1cccnc1)c1cccc(F)c1` here?
The EC50 was 9.74 µM.

Which EC50 does the source give for `COc1cc(CNc2ccc3[nH]c(=O)[nH]c3c2)cc(Br)c1OCc1ccccc1F` here?
The EC50 was > 80 µM (inactive).

How did the EC50 turn out when `CCCCn1c(/C=N/Nc2nc3ccccc3[nH]2)nc2ccccc21` was run?
Its EC50 is 12.3 µM.

With `COc1ccc(C2c3ccc4ccccc4c3Oc3ncn(CCCN(C)C)c(=N)c32)cc1` (stereo not given) as the compound, how does the EC50 read?
The EC50 was 6.82 µM.

For `COC(=O)c1cc(=O)n(CCc2ccc(OC)c(OC)c2)c(=Nc2ccc(F)c(Cl)c2)s1`, which EC50 is on record?
Its EC50 is 16.9 µM.

For `COc1ccc(NC(=O)c2sc3nc(N4CCOCC4)c4c(c3c2N)CC(C)(C)OC4)c(OC)c1`, which EC50 is on record?
The EC50 was > 80 µM (inactive).

`Cc1[nH]c2c(C)cccc2c1CCNC(=O)c1ccc2c(c1[N+](=O)[O-])C(=O)c1ccccc1C2=O` was tested. Which EC50 did it give?
Its EC50 is 6.46 µM.

How did the EC50 turn out when `O=C(Nc1ccc(C(F)(F)F)cc1)c1cc(-c2cccnc2)nc2ccc(Br)cc12` was run?
Its EC50 is 8.66 µM.

How did the EC50 turn out when `CCOC(=O)/C=c1\s/c(=C\c2ccc3cc(OC)ccc3c2)c(=O)n1CC(=O)NCC1CCCO1` (stereo not given) was run?
Its EC50 is 10.7 µM.

Which EC50 does the source give for `O=c1nc(Nc2cccc(Cl)c2)oc2cc(Cl)oc(=O)c12` here?
The EC50 was 11.5 µM.

Which EC50 does the source give for `Cc1cc(C)n(-c2nc(NC(C)(C)C)nc(NC(C)(C)C)n2)n1` here?
Its EC50 is > 80 µM (inactive).

How did the EC50 turn out when `CSc1nnc(NC(=O)c2nc(S(=O)(=O)Cc3cccc(C)c3)ncc2Cl)s1` was run?
The EC50 was > 80 µM (inactive).

With `O=C1C(CSCc2ccccc2)NC(=S)N1c1ccccc1` (stereo not given) as the compound, how does the EC50 read?
Its EC50 is “inactive”.

`CC(C)CNC(=O)c1coc(=O)c(Br)c1` was tested. Which EC50 did it give?
The EC50 was 12 µM.

How did the EC50 turn out when `S=C1SCN(CCN2CCOCC2)CN1Cc1ccccc1` was run?
Its EC50 is 10.8 µM.

With `Fc1ccc(NC(=S)Nc2nccs2)cc1` as the compound, how does the EC50 read?
The EC50 was “inactive”.

Which EC50 does the source give for `Cc1ccccc1NC(=O)c1ccc(N/N=C/c2ccccc2O)c([N+](=O)[O-])c1` here?
Its EC50 is 9.06 µM.

For `CCCCOC(=O)/C=C\C(=O)NC(N)=O`, which EC50 is on record?
Its EC50 is 13.8 µM.

`CCOC(=O)C1=C(CCl)NC(=O)NC1c1ccc2c(c1)OCO2` (stereo not given) was tested. Which EC50 did it give?
Its EC50 is > 80 µM (inactive).

`O=[N+]([O-])c1cc(-c2ncccn2)c([N+](=O)[O-])s1` was tested. Which EC50 did it give?
The EC50 was 7.51 µM.

Which EC50 does the source give for `Cc1ccnc(Nc2nc(-c3ccc(O)c(O)c3)cs2)c1` here?
Its EC50 is 1.34 µM.

For `CC1=NOC(=O)/C1=C\c1ccc(-c2cccc(Cl)c2)o1`, which EC50 is on record?
The EC50 was 13.1 µM.

Which EC50 does the source give for `CCOc1cc(C=C(C(=O)OC)C(=O)OC)ccc1OCc1ccc([N+](=O)[O-])cc1` here?
Its EC50 is 6.82 µM.

For `CC1(C)CC(=O)C(=Cc2cn(-c3ccccc3)nc2-c2ccc(Cl)cc2)C(=O)C1`, which EC50 is on record?
Its EC50 is 6.07 µM.

With `Oc1c(CN2CCN(c3ccc(F)cc3)CC2)cc(Cl)c2cccnc12` as the compound, how does the EC50 read?
The EC50 was 14 µM.

`Cn1c(=O)c2c(SCC(=O)Nc3ccccc3F)nc(-c3ccccc3F)nc2n(C)c1=O` was tested. Which EC50 did it give?
The EC50 was 12.6 µM.

Which EC50 does the source give for `Cc1c(NC(=O)CSc2cccc3cccnc23)c(=O)n(-c2ccccc2)n1C` here?
The EC50 was 6.53 µM.

Which EC50 does the source give for `Oc1ccc(CN2CCc3ccccc3C2)c2cccnc12` here?
The EC50 was 13.8 µM.

For `COC(=O)Oc1ccc(/C=C/C(=O)OC(C)C)cc1OC(=O)OC`, which EC50 is on record?
Its EC50 is 14 µM.

With `C/C(CCC12CC3CC(CC(C3)C1)C2)=N\NC(N)=S` as the compound, how does the EC50 read?
The EC50 was 16.5 µM.

How did the EC50 turn out when `Cc1cccc(Nc2nc(-c3ccccn3)cs2)n1` was run?
The EC50 was 10.8 µM.

How did the EC50 turn out when `COCCN1CSC(=S)N(Cc2ccco2)C1` was run?
Its EC50 is > 80 µM (inactive).

For `CCCCOc1ccc(N2C(=O)CC(N(O)c3ccccc3)C2=O)cc1` (stereo not given), which EC50 is on record?
The EC50 was 7.25 µM.
